From patent US10662204B2 (PFIZER INC., priority 2018, dated 2020)

What was measured:
[1] = molecular target: T1, GDP-loaded KRAS (1-169) G12C, C51S, C80L, C118S (Homo sapiens, UniProt P01116, C118S/C51S/C80L/G12C); assay: Mass Spectrometry Reactivity Assay (MSRA): covalent adduct of compound and KRAS G12C, Percent Modification; type: binding; settings: for MSRA (% modification) 5.0 μM 0.017 hr / MSRA (% modification) 5.0 μM 0.25 hr: 5.0 μM compound; for MSRA (% modification) 10 μM 0.50 hr: 10 μM compound
T1 construct: GDP-loaded KRAS (1-169) G12C, C51S, C80L, C118S
Description: Mass Spectrometry Reactivity Assay (MSRA)
Compounds presented in the present invention covalently bind to KRAS G12C using MSRA to detect a covalent adduct of the exemplary compound and KRAS G12C.
GDP-loaded KRAS (1-169) G12C, C51S, C80L, C118S were diluted in the protein assay buffer 25 mM Hepes pH7.5, 200 mM NaCl, 5% glycerol to concentration of 5 μM and 20 μl of protein was transferred into 96-well plate. Initial compound stocks were generated at concentrations 100-fold higher that their desired assay concentrations. See K-Ras(G12C) inhibitors allosterically control GTP affinity and effector interactions; Ostrem J M, Peters U, Sos M L, Wells J A, Shokat K M; Nature. 2013, Nov. 28; 503(7477):548-51.
Exemplary compounds dissolved in DMSO were diluted 100-fold into solution containing 20 μl of 5 μM KRAS protein in the 96-well plate to initiate the reaction. Mosquito (TPP Lab tech) liquid handling robot was used to add compounds to protein solution. Typical final concentration of the compounds was 5 μM or 10 μM. The plates were placed on a shaker for 1 min at RT, sealed and incubated at room temperature for specified time period. 5 μl of reaction mix was added to 10 μl of 0.2% formic acid stop solution and mixed well. Typical end points were 1, 15, 30, and 60 min.
Data were collected using Waters Acquity H-class UPLC system/Xevo G2-XS TOF mass spectrometer. The protein was injected in their liquid phase onto a Bruker Microtrap protein column TR1/15109/03. The following buffers were used to set LC gradient: Buffer A: 0.2% formic acid H2O; B: 0.2% formic acid CAN. The protein was eluted from the column using the following LC Gradient: 0-0.4 min, 10% B to 30% B; 0.4 min-2.4 min, to 90% B, 2.5 min, 10% B, 3 min, 10% B. Initial data analysis was performed using MaxEnt software right after data acquisition.
The standard auto processing function was used to define percentage of unmodified and modified KRAS protein using MexEnt software right after data acquisition. The highest peak was defined as 100% while smaller peak as assigned the number defined by autoprocessing function. The percent of modification corresponding to modified with exemplary compound and unmodified KRAS GDP-loaded KRAS (1-169) G12C, C51S, C80L, C118S were exported to Xcel data analysis software.
The percent of modified protein at the defined concentration of exemplary compound was calculated using the following formula: % mod=Num of modified peak/Sum of modified+unmodified. The resultant value defined as Percent Modification (PM) and an increase in PM reflects that the specific compound is better than other compounds at specified compound concentration at a given time point.

[2] = molecular target: KRAS G12C (Homo sapiens, UniProt P01116, G12C); assay: Cell Activity Assay: accumulation of GDP-bound KRAS G12C in MIAPaCa-2 cells (Raf-1 RBD capture, MSD readout); type: cell-based; design: endogenous in cells; host or cells: MIAPaCa-2; settings: 6 hours, assay limit is 30.00
Description: Compounds presented in the present invention lead to the accumulation of the GDP bound Ras upon treatment of human cancer cell line.
The accumulation of the GDP-bound KRAS G12C in cellular environment was measured based on the principle that KRAS G12C only binds to its downstream kinase; Raf-1 (MAP Kinase Kinase Kinase), when in its active-GTP bound state. In this state, Ras binded to a domain of Raf-1 kinase referred to as the Ras Binding Domain (RBD).
MIAPaCa-2 cells were grown in RPMI 1640 medium (Gibco 11875) supplemented with 10% fetal bovine serum and 1% penicillin/streptomycin. Cells were seeded in 96-well tissue culture plates at a density of 30,000 cells/well and allowed to attach for 16-24 hours. Test compounds were prepared as a 10 mM stock in DMSO and serially diluted in 100% DMSO using a 3-fold dilution scheme. An intermediate 5× concentrated plate in complete growth medium was made and 25 μl/well was added to the 100 μl of cells for a final concentration of 0.3% DMSO. Each concentration of exemplary compound was tested in duplicate. The negative control wells were cells with control inhibitor at 10 μM, and the positive control wells were cells without drugs, DMSO only. Plates were incubated for 6 hours at 37° C., 5% CO2. Following treatment, cells were washed 3× with ice-cold PBS and 115 μl/well ice-cold 1× Assay/Lysis. Buffer with protease inhibitors was added (25 mM HEPES, pH 7.5, 150 mM NaCl, 1% NP-40, 10 mM MgCl2, 1 mM EDTA, 2% Glycerol). Following lysis samples were frozen at −80° C.
Raf-1 RBD (LJIC-1988A1) was diluted to 100 ng/well in PBS and 5 μl/well was spot coated onto MSD high bind SECTOR plates (L15XB). Plates were incubated at room temperature for 1 hour on an orbital shaker. Plates were washed with PBS/0.05% Tween-20 and 50 μl/well of thawed lysate samples were added, followed by 50 μl of 1% MSD Blocker A in PBS/0.05 Tween-20 (R93BA). Plates were incubated for 1 hour on an orbital shaker and washed with PBS/0.05% Tween-20. 25 μl/well of Anti-pan-Ras Antibody (Cell Biolabs 244003) diluted 1:3000 was added in 1% MSD Blocker A solution and plates were incubated for 1 hour on an orbital shaker and washed with PBS/0.05% Tween-20. SULFO-TAG goat anti-mouse secondary antibody (MSD R32AC) was diluted 1:500 in MSD Blocker A solution and added at 25 μL/well. Plates were incubated for 1 hour on an orbital shaker and washed with PBS/0.05% Tween-20. 150 μl/well of Read Buffer T (MSD R92TC) diluted 1:3 in H2O was added and plates were read on a Meso Scale Discovery Sector Imager S600.
KRAS signal was normalized to maximum inhibition and DMSO control values, and IC50 values were generated using a 4 parameter fit of the dose response curve. The decrease in IC50 reflects that the exemplary compound lead to a higher level of accumulation of GDP-bound KRAS G12C than another exemplary compounds at specific timepoint of treatment of cancer cell line.

| Structure (SMILES) | MSRA (% modification) 5.0 μM 0.017 hr [1] [%] | IC50 [2] [µM] | MSRA (% modification) 10 μM 0.50 hr [1] [%] | MSRA (% modification) 5.0 μM 0.25 hr [1] [%] |
| --- | --- | --- | --- | --- |
| C=CC(=O)N1CCN(c2nc(O[C@@H]3CN(C)C[C@H]3C(F)F)nc3c(Oc4c(Cl)c(F)cc5[nH]ncc45)nccc23)CC1 (single isomer, unassigned) [Example 59I] | 13 | 0.123 |  |  |
| C=CC(=O)N1CCN(c2ncnc3c(Oc4cc(O)cc5ccccc45)nc(C(F)(F)F)cc23)CC1 [Example 01, 1-(4-{8-[(3-hydroxynaphthalen-1-yl)oxy]-6-(trifluoromethyl)pyrido[3,4-d]pyrimidin-4-yl}piperazin-1-yl)prop-2-en-1-one] |  | > 30 | 27 |  |
| C=CC(=O)N1CCN(c2ncnc3c(Oc4c(C)ccc5[nH]ncc45)nccc23)CC1 [Example 01A, 1-(4-{8-[(5-methyl-1H-indazol-4-yl)oxy]pyrido[3,4-d]pyrimidin-4-yl}piperazin-1-yl)prop-2-en-1-one] |  | 11.8 | 11 |  |
| C=CC(=O)N1CCN(c2nc(OC)nc3c(Oc4c(C)ccc5[nH]ncc45)nccc23)CC1 [Example 01B, 1-(4-{2-methoxy-8-[(5-methyl-1H-indazol-4-yl)oxy]pyrido[3,4-d]pyrimidin-4-yl}piperazin-1-yl)prop-2-en-1-one] |  | 16.9 | 12 |  |
| C=CC(=O)N1CCN(c2ncnc3c(Oc4c(C)ccc5[nH]ncc45)cccc23)CC1 [Example 01C, 1-(4-{8-[(5-methyl-1H-indazol-4-yl)oxy]quinazolin-4-yl}piperazin-1-yl)prop-2-en-1-one] |  | 5.92 | 18 |  |
| C=CC(=O)N1CCN(c2ncnc3c(Cc4c(C)ccc5[nH]ncc45)cccc23)CC1 [Example 01D, 1-(4-{8-[(5-methyl-1H-indazol-4-yl)methyl]quinazolin-4-yl}piperazin-1-yl)prop-2-en-1-one] |  | 6.69 | 37 |  |
| C=CC(=O)N1CCN(c2nc(N3CC(N(C)C)C3)nc3c(Oc4c(Cl)c(C)cc5[nH]ncc45)nc(C)cc23)CC1 [Example 01E, 1-(4-{8-[(5-Chloro-6-methyl-1H-indazol-4-yl)oxy]-2-[3-(dimethylamino)azetidin-1-yl]-6-methylpyrido[3,4-d]pyrimidin-4-yl}piperazin-1-yl)prop-2-en-1-one] |  | 2.41 | 29 |  |
| C=CC(=O)N1CCN(c2nc(NCc3nc(C)c[nH]3)nc3c(Oc4c(C)ccc5[nH]ncc45)cccc23)CC1 [Example 01F, 1-[4-(2-{[(4-methyl-1H-imidazol-2-yl)methyl]amino}-8-[(5-methyl-1H-indazol-4-yl)oxy]quinazolin-4-yl)piperazin-1-yl]prop-2-en-1-one] |  | 9.34 | 35 |  |
| C=CC(=O)N1CCN(c2nc(O[C@H]3CCOC3)nc3c(Oc4c(Cl)c(F)cc5[nH]ncc45)nccc23)CC1 [Example 01J, 1-(4-{8-[(5-chloro-6-fluoro-1H-indazol-4-yl)oxy]-2-[(3S)-tetrahydrofuran-3-yloxy]pyrido[3,4-d]pyrimidin-4-yl}piperazin-1-yl)prop-2-en-1-one] |  | 0.339 |  | 55 |
| C=CC(=O)N1CCN(c2nc(O[C@@H]3CN(C)C[C@H]3OC)nc3c(Oc4c(Cl)c(F)cc5[nH]ncc45)nc(C)cc23)CC1 [Example 01K, 1-[4-(8-[(5-chloro-6-fluoro-1H-indazol-4-yl)oxy]-2-{[(3R,4R)-4-methoxy-1-methylpyrrolidin-3-yl]oxy}-6-methylpyrido[3,4-d]pyrimidin-4-yl)piperazin-1-yl]prop-2-en-1-one] | 65 | 0.065 |  |  |
| C=CC(=O)N1CCN(c2nc(O[C@@H]3CN(C)C[C@H]3OC)nc3c(Oc4c(Cl)c(F)cc5[nH]ncc45)cccc23)CC1 [Example 01L, 1-[4-(8-[(5-chloro-6-fluoro-1H-indazol-4-yl)oxy]-2-{[(3R,4R)-4-methoxy-1-methylpyrrolidin-3-yl]oxy}quinazolin-4-yl)piperazin-1-yl]prop-2-en-1-one] | 51 | 0.038 |  |  |
| C=CC(=O)N1CCN(c2ncnc3c(Oc4cc(O)cc5ccccc45)nc(C)cc23)CC1 [Example 02, 1-(4-{8-[(3-Hydroxynaphthalen-1-yl)oxy]-6-methylpyrido[3,4-d]pyrimidin-4-yl}piperazin-1-yl)prop-2-en-1-one] |  | > 30 | 19 |  |
| C=CC(=O)N1CCN(c2ncnc3c(Oc4c(C)ccc5[nH]ncc45)nc(C)cc23)CC1 [Example 02A, 1-(4-{6-methyl-8-[(5-methyl-1H-indazol-4-yl)oxy]pyrido[3,4-d]pyrimidin-4-yl}piperazin-1-yl)prop-2-en-1-one] |  | 5.25 | 15 |  |
| C=CC(=O)N1CCN(c2ncnc3c(Oc4c(Cl)c(F)cc5[nH]ncc45)nccc23)CC1 [Example 02C, 1-(4-{8-[(5-chloro-6-fluoro-1H-indazol-4-yl)oxy]pyrido[3,4-d]pyrimidin-4-yl}piperazin-1-yl)prop-2-en-1-one] |  | 1.01 | 60 | 12 |
| C=CC(=O)N1CCN(c2ncnc3c(Cc4c(C)ccc5[nH]ncc45)nccc23)CC1 [Example 02D, 1-(4-{8-[(5-methyl-1H-indazol-4-yl)methyl]pyrido[3,4-d]pyrimidin-4-yl}piperazin-1-yl)prop-2-en-1-one] |  | 4.66 | 12 |  |
